Source: patent US11235020B2, “Methods and compositions for inhibiting glyoxalase 1 (GLO1)” (priority 2013, dated 2022)

How the values were obtained:
[1] = tested on: GABAA receptors in hippocampal neurons; assay: Whole-cell patch clamp in hippocampal neurons (HN); format: cell-based, rat; conditions: for increase of GABA-evoked currents: 500 nM modulator co-applied with 10 μM GABA; for increase of MG-evoked currents: 500 nM modulator co-applied with 10 μM MG
Experimental: (§1) Reagents: All reagents were obtained from Sigma-Aldrich.
Neurons were maintained in neurobasal medium with B27 supplement and glutamax in a humidified atmosphere with 5% CO2 at 37° C.
(§2) Filter and sampling frequencies were 5 and 25 kHz, respectively, for voltage-clamp experiments and 1 and 10 kHz, respectively, for current-clamp recording. Experiments were performed at 32° C. using a feedback-controlled heated perfusion system (Warner Instruments). Vm, ligand-gated currents, and potassium channel currents were studied in a bath solution containing 1 mM CaCl2, 1 mM MgCl2, 4 mM KCl, 140 mM NaCl, 5 mM glucose, and 10 mM HEPES (pH 7.4). […] Electrodes were coated with Sigmacote (Sigma) prior to use.
(§3) Ligand-gated currents: Ligand-gated currents were studied in voltage-clamp mode by application of reagents to cells held at −50 mV.

locomotion in Cd-1 mice = assay: Open field test after i.p. glyceraldehyde; format: in vivo, mouse; conditions: GA i.p., tested 10 min after injection
Experimental: GA is rapidly converted into MG. Cd-1 mice (Charles River, Portage Mich.) were treated i.p. With vehicle (0.9% NaCl) or GA at the indicated doses. Ten minutes after injection, mice were tested in the open field (OF) test (locomotor chambers). Behavioral data were collected at 5 and 10 minutes. Because vehicle-treated mice differed in total distance traveled between the testing days, the data were not combined into a single analysis. Statistical analyses included repeated-measures anova for the factor treatment. The repeated measures were total distance (at 5 and 10 min) and % center time (at 5 and 10 min). For comparison of vehicle and GA at individual time points, a t-test was used. […] This would be an additional means of obtaining desirable clinical effects, including anxiolytic, antidepressant, anti-epileptic, and induction of sleep.

[2] = tested on: GABAA receptors in macropatches excised from CGN; assay: Macropatch recording from CGN; format: cell-based, rat; conditions: 10 μM; SR 10 μM at the extracellular face (pipette)
Experimental: Macropatch recording: Macropatch recording was performed with 1.5-2 MΩ electrodes filled with bath solution. The inside of excised patches was perfused with electrode solution containing the indicated reagents. SR was added to the electrode where indicated.

[3] = tested on: GABAA receptors in cerebellar granule neurons; assay: Whole-cell patch clamp in cerebellar granule neurons (CGN); format: cell-based, rat
Experimental: as §1
Culture of rat CGN: CGN were cultured from mixed-sex Sprague-Dawley rats. Tissue was dissected from 6- to 8-day-old rats. Cells were suspended in minimal essential medium supplemented with 10% fetal calf serum, 26 mM glucose, 19 mM KCl, 2 mM 1-glutamine, and penicillin/streptomycin (50 IU/ml and 50 μg/ml). Cells were seeded on poly-1-lysine-coated coverslips and incubated in a humidified atmosphere containing 5% CO2 at 37° C. After 48 hours, the culture medium was replaced with minimal essential medium supplemented with 10% horse serum, 26 mM glucose, 19 mM KCl, 2 mM 1-glutamine, penicillin/streptomycin (50 IU/ml and 50 μg/ml), and 80 μM 1-fluorodeoxyuridine. Culture medium was exchanged every three days. All recordings were made from cells between days 6 to 9 in culture.
as §2, §3

[4] = tested on: depression-like behavior in mice; assay: Chronic forced swim test (cFST), osmotic minipump; format: in vivo, mouse; conditions: fluoxetine 18 mg/kg/day, 14 days
Experimental: To fully assess the therapeutic potential of GLO1 inhibitors, it is necessary to utilize behavioral models sensitive to chronic administration. These models are highly informative as the therapeutic onset of antidepressant action mimics clinical onset in humans. pBBG was administered by osmotic minipumps (Alzet) for 14 days at various doses (0, 5, 10, 15, 30 and 60 mg/kg/day) to establish a dose response curve. Osmotic minipumps are ideal for chronic treatment as they release a constant volume at a very slow rate minimizing the stress of multiple injections.

[5] = tested on: anxiety-like behavior in C57BL6/J mice; assay: OFT after bilateral microinjection into the basolateral amygdala (BLA); conditions: midazolam 4 mM, 0.5 ul bilateral into BLA, over 30 m
[6] = tested on: motor coordination in mice; assay: Balance beam test; format: in vivo, mouse; conditions: 300 mg/kg i.p., B6 mice
Experimental: The balance beam was 97 cm×9.5 mm and elevated to 46 cm. Mice were tested on the balance beam, and missteps were counted.
Balance beam: The balance beam test was performed as described above. Ten minutes post-injection, mice were tested on the balance beam, and missteps were recorded.

[7] = tested on: anxiety-like behavior and locomotion in mice; assay: Open field (OF) test; format: in vivo, mouse; conditions: B6 mice
Experimental: OF test: Mice were placed into the center of the OF, and activity was monitored for five to ten minutes. The apparatus was illuminated to approximately 40 lux. Data were collected and processed using the manufacturer's software (AccuScan Instruments).
OF test: Ten minutes post-injection, mice were placed into the center of the OF. The apparatus was illuminated to approximately 40 lux. Behavior was measured as described above.
OF test replication studies: Ten to twenty minutes post-injection, mice were tested in the OF for five to ten minutes. In some experiments, behavior was scored as described above. In other experiments, mice were tested in the OF, and behavior was automatically scored by the Noldus Ethovision System. For mice tested in the Noldus system, the apparatus was illuminated to approximately 1,000 lux.
Chronic MG administration: For five days, mice were injected twice daily with vehicle or MG (4 mg/kg). Twelve hours after the final injection, mice were tested in the OF as described above.
Pure MG: Pure MG was obtained from Dr. John Termini at the City of Hope, Duarte, Calif. It was administered at the indicated doses by i.p. injection. Mice were tested as described above.
OF test: Two hours post-injection, mice were tested in the OF test as described above. The center size was 10×10 cm. The apparatus was illuminated to approximately 40 lux.

mice = assay: Hypothermia (rectal temperature); format: in vivo, mouse; conditions: 300 mg/kg i.p., B6 mice
Experimental: Hypothermia: Thirty minutes post-injection, rectal temperature was measured with a digital thermometer.

CN1C(=O)CN=C(c2ccccc2)c2cc(Cl)ccc21 [Diazepam, diazepam]
increase of GABA-evoked currents [1]: approximately 45% | increase of MG-evoked currents [1]: approximately 60%

O=CC(O)CO (stereo not drawn) [GA, glyceraldehyde]
locomotor effect in the open field (locomotion in Cd-1 mice): has locomotor depressant effects

NCCCC(=O)O [GABA, gamma-aminobutyric acid, reference compound]
current on application to the intracellular face of macropatches [2]: did not elicit a current

Br.COc1ccc(-c2ccc(=N)n(CCCC(=O)O)n2)cc1 [SR, reference compound]
inhibition of Vm changes induced by MG and GABA ([3]; 10 μM SR, 10 μM MG or GABA): > 95% | inhibition of current-density changes induced by MG and GABA ([3]; 10 μM SR, 10 μM MG or GABA): > 95% | current on application to the intracellular face of macropatches [2]: this current was inhibited when SR was applied to the extracellular face

CNCCC(Oc1ccc(C(F)(F)F)cc1)c1ccccc1 (stereo not drawn) [fluoxetine]
depression-like behavior in the cFST [4]: reduces depression-like behavior in the forced swim test

Cc1ncc2n1-c1ccc(Cl)cc1C(c1ccccc1F)=NC2 [midazolam]
center duration in the OFT [5]: increased center duration in the OFT | increase of GABA-evoked currents [1]: approximately 27% | increase of MG-evoked currents [1]: approximately 40%

CC(=O)C=O [pure MG, methylglyoxal]
inward currents in CGN ([3]; 10 μM): evoked inward currents in CGN | footslips on the balance beam (ataxia) [6]: increased footslips on the balance beam | time in the center of the OF ([7]; pure MG 5 mg/kg, 10 min later): increased time in the center of the OF | total distance traveled in the OF ([7]; pure MG 300 mg/kg): reduced total distance traveled in the OF | hypothermia (mice): caused hypothermia

Cc1ccc(-c2nc3ccc(C)cn3c2CC(=O)N(C)C)cc1 [zolpidem]
increase of GABA-evoked currents [1]: approximately 17% | increase of MG-evoked currents [1]: approximately 15%
